The subject of data set [1] is human peripheral blood mononuclear cells (PBMCs). Briefly: PBMC stimulation: DOTAP co-transfection of immunostimulatory non-coding RNA (RNAdjuvant) with oligonucleotide, cytokines by CBA. It is filed as cell-based. The settings on record: DOTAP co-transfection with RNAdjuvant 1 μg/ml, oligonucleotide 0.25 μg/ml (25% weight), supernatant 24 hours, compared to immunostimulatory non-coding RNA only (FIG. 1A). Here is the method:
Human peripheral blood mononuclear cells (PBMCs) were isolated from heparinized blood of healthy volunteers by standard Ficoll-Hypaque density gradient centrifugation (Ficoll 1.078 g/ml). PBMCs were re-suspended in RPMI 1640 supplemented with 10% heat-inactivated FCS. After counting, cells are re-suspended at 50 million cells per ml in fetal calf serum, 10% DMSO, and frozen. Before usage, the cells are thawed.
For transfection experiments, 2×10^5 human PBMCs per well were seeded into each well of a 96-well plate in X-Vivo 15 medium (Lonza). For preparation of DOTAP complexes containing both immunostimulatory non-coding RNA and a 2′-O-methylated oligonucleotide (SEQ ID NO: 85), the oligonucleotide was first added to immunostimulatory non-coding RNA at a weight percentage of 25%. For preparation of DOTAP complexes containing both PpLuc mRNA and a 2′-O-methylated oligonucleotide, the oligonucleotide was first added to PpLuc mRNA at a weight percentage of 25%. The molar ratio of PpLuc mRNA to oligonucleotide was thus […] (MW (Oligonucleotide)=2907 g/mol, MW (PpLuc mRNA)=652377 g/mol). DOTAP complexes containing either immunostimulatory non-coding RNA or PpLuc mRNA without or with oligonucleotide were formed at a ratio of 3 μl of DOTAP per 1 μg of RNAdjuvant or 1 μg of mRNA. […] To quantify background stimulation, PBMC were incubated either with DOTAP alone (“vehicle”) or medium only. […]
In supernatants collected from PBMC stimulated without or with 2-O-methylated oligonucleotide, the concentrations of IFN-α, IFN-γ, TNF, were measured by Cytometric Bead Array (CBA) according to the manufacturer's instructions (BD Biosciences) using the following kits: Human Soluble Protein Master Buffer Kit (catalog no. 558264), Assay Diluent (catalog no. 560104), Human IFN-α Flex Set (catalog no. 560379), Human IFN-γ Flex Set (catalog no. 558269), Human TNF Flex Set (catalog no. 560112); all kits from BD Biosciences. The data was analyzed using the FCAP Array v3.0 software (BD Biosciences).

Data set [2] has as its system mice (strain 129SV). Briefly: In vivo bioluminescence imaging of PpLuc expression after i.v. injection of LNP-formulated PpLuc mRNA with or without oligonucleotide. Also on record: species or system mouse. The settings on record: 24 hours post single i.v. injection, 10 μg or 30 μg of mRNA (either dose), oligo 20% or 6.7% mass, compared to PpLuc mRNA without Gm18 (FIG. 2). The method, then: For preparation of Lipid nanoparticles (LNP) containing both PpLuc mRNA and 2-O-methylated oligonucleotide, first the 2′-O-methylated oligonucleotide was added to PpLuc mRNA at a weight percentage of either 20% or 6.7% (see Table 3). LNP containing PpLuc mRNA either with or without admixture of 2-O-methylated oligonucleotide were prepared using cationic lipid, cholesterol, PEG-lipid and a neutral lipid. The mRNA was diluted to 1 g/L in citrate buffer, pH 4. The ethanolic lipid solution was mixed with the aqueous RNA solution at a ratio of 1:3 (vol/vol) using a Nanoassemblr (PrecisionNanoSystems). The ethanol was then removed and the buffer replaced by 10 mM HEPES, pH 7.4 comprising 9% Sucrose by dialysis. Finally, the LNP-formulated RNA was adjusted to 0.2 g/L. For in vivo experiments, 8 weeks old female mice (around 25 g, strain 129SV) were injected with the various LNP formulations (see tables 4 and 5). 4 animals were used per group. 10 μg or 30 μg of mRNA formulated with or without 2′-O-methylated oligonucleotide were intravenously injected at a concentration of 0.2 g/l. Bioluminescence imaging was performed 6 hours and 24 hours post LNP injection. […] PpLuc expression was quantified from bioluminescence images recorded for 3 minutes starting 5 minutes after i.v. injection of 3 mg of luciferin (see Table 5).

In data set [3] the test system is mice (strain 129SV). Briefly: Serum IFNα by ELISA 24 hours post LNP injection. Particulars: 24 hours post i.v. LNP injection, in a dose-dependent manner (oligo 20% or 6.7% mass), compared to PpLuc mRNA only (FIG. 4B). It is filed as in vivo, mouse. The method, then: For preparation of Lipid nanoparticles (LNP) containing both PpLuc mRNA and 2-O-methylated oligonucleotide, first the 2′-O-methylated oligonucleotide was added to PpLuc mRNA at a weight percentage of either 20% or 6.7% (see Table 3). LNP containing PpLuc mRNA either with or without admixture of 2-O-methylated oligonucleotide were prepared using cationic lipid, cholesterol, PEG-lipid and a neutral lipid. The mRNA was diluted to 1 g/L in citrate buffer, pH 4. The ethanolic lipid solution was mixed with the aqueous RNA solution at a ratio of 1:3 (vol/vol) using a Nanoassemblr (PrecisionNanoSystems). The ethanol was then removed and the buffer replaced by 10 mM HEPES, pH 7.4 comprising 9% Sucrose by dialysis. […] To analyse the influence of the 2′-O-methylated oligonucleotide on immunostimulation, the concentrations of IFNγ, TNFα, IL-6, MIP-1β, RANTES, and MCP1 were measured in sera from blood collected 6 hours post LNP injection by Cytometric Bead Array (CBA), performed as described in paragraph 2.3. […] To further assess the influence of the 2′-O-methylated oligonucleotide on immunostimulation, the concentration of IFNα was measured in sera from blood collected 24 hours post LNP injection by ELISA.
(In general: ELISA stands for enzyme-linked immunosorbent assay.)

For “5′-GAG CGmG CCA-3′ (GAGCNGCCA; 2'-O-methyl guanosine at position 5; 9mer oligonucleotide; modified_base (5)..(5) n can be any nucleotide, wherein the nucleotide is 2-O-methylated, preferably a 2-O-methylated guanosine) [Gm18, 9-mer 2′-O-methylated RNA oligonucleotide; position 5 is 2′-O-methylated guanosine (Gm); antagonist of TLR7 and 8]”, in data set [1], the “secretion of cytokine INF-a” value is given as “reduced secretion”, the “secretion of cytokine INF-y” value was “reduced secretion” and the “secretion of cytokine TNF” value is on record as “reduced secretion”. For the same substance, the “expression of PpLuc (bioluminescence imaging)” value in the data set on mice (strain 129SV) [2] is given as “increases the expression”. Moreover, the “release of IFNα in sera (ELISA)” value with mice (strain 129SV) [3] is given as “strongly decreases the release”.
